Assay results reported in US20060058274A1, “Use of an aldosterone receptor antagonist to improve cognitive function” (Pharmacia Corporation, priority 2000, published 2006).
Marks after values point to notes of the source that are not given here.

Key:
[1] = system: patients with mild-to-moderate hypertension; experiment: Phase II dose-ranging study of eplerenone in mild-to-moderate hypertension; assay type: in vivo, human; settings: 50 mg BID
Source text: The adjusted mean changes (in mmHg) in diastolic blood pressure (DBP) and systolic blood pressure (SBP) from baseline to final visit are shown in Table 1A.

animal models = settings: cited from earlier work
rats = settings: prior treatment; scopolamine cholinergic blockade; cited from earlier work
[2] = system: patients with severe heart failure; experiment: Clinical study in patients with severe heart failure: HRQOL by SF-36; assay type: in vivo, human; settings: for Change from baseline in SF-36 Bodily Pain / Change from baseline in SF-36 General Health / Change from baseline in SF-36 Mental Composite Summary (MCS) / Change from baseline in SF-36 Mental Health / Change from baseline in SF-36 Physical Composite Summary (PCS) / Change from baseline in SF-36 Physical Functioning / Change from baseline in SF-36 Role Limitations - Emotional / Change from baseline in SF-36 Role Limitations - Physical / Change from baseline in SF-36 Social Functioning / Change from baseline in SF-36 Vitality: 25 mg daily, mean ± SD; for Effect size estimate for change in SF-36 Bodily Pain / Effect size estimate for change in SF-36 General Health / Effect size estimate for change in SF-36 Mental Composite Summary (MCS) / Effect size estimate for change in SF-36 Mental Health / Effect size estimate for change in SF-36 Physical Composite Summary (PCS) / Effect size estimate for change in SF-36 Physical Functioning / Effect size estimate for change in SF-36 Role Limitations - Emotional / Effect size estimate for change in SF-36 Role Limitations - Physical / Effect size estimate for change in SF-36 Social Functioning / Effect size estimate for change in SF-36 Vitality: [mean (spironolactone) − mean (placebo)]/(SD placebo at baseline)
Source text: Patients: One thousand six hundred and sixty-three (1,663) patients with severe heart failure were enrolled in the study. […] Treatment with digitalis and vasodilators was allowed, but potassium-sparing diuretics were not permitted. Oral potassium supplements were not recommended unless hypokalemia (serum potassium ≦3.5 mmol per liter) developed. A low salt diet (100-200 mEg/day, sodium) was recommended to all patients. Patients were excluded from the trial if they had clinically significant operable valvular disease (other than mitral or tricuspid regurgitation), congenital heart disease, unstable angina, primary hepatic failure, active malignancy, a heart transplant or were a candidate for heart transplantation, or any life threatening diseae (other than heart failure). Other criteria for exclusion were a serum creatinine concentration >2.5 mg per deciliter (>220 μmol per liter) or a serum potassium concentration >5.0 mmol per liter. The protocol was approved by the Institutional Review Boards or Ethics Committees of all participating institutions. Written informed consent was obtained from all patients.
Study Group: Subjects were randomly assigned to receive either spironolactone 25 mg daily or placebo. HRQOL was assessed in a subsample of 90 subjects in 2 participating countries using the Medical Outcomes Trust Short-Form 36-item Health Survey (SF-36). Assessments were scheduled at baseline, 1, 2, 3, and 6 months after initiation of therapy.
HRQOL Evaluation: HRQOL was assessed using the Short-Form 36-item Health Survey (SF-36). (Ware J E, Snow K K, Kosinski M, Gandek B. SF-36 Health Survey: Manual and Interpretation Guide. Boston, Mass.: The Health Institute, 1993). Assessments were scheduled at baseline, 1, 2, 3, 6 and 12 months after initiation of therapy. The analysis presented herein is limited to 6-month follow-up as less than 50% of subjects had 12-month follow-up data.
Statistical Analyses: Change from baseline was assessed for the 8 dimension scores of the SF-36, as well as the Physical (PCS) and Mental Composite Summary (MCS) scores. (Ware J E, Kosinski M, Keller S D. SF-36 Physical and Mental Health Summary Scales: A User's Manual. Boston, Mass.: The Health Institute, 1994). The PCS and MCS are generated to represent weighted summaries scores of the four physical functioning scales and four mental functioning scales of the SF-36. The summary scores are generally regarded as having improved reliability and precision as they are based on an incrementally larger number of health states contained in the SF-36 items. (Ware J E, Kosinski M, Keller S D. SF-36 Physical and Mental Health Summary Scales: A User's Manual. Boston, Mass.: The Health Institute, 1994.) Changes from baseline scores were compared between groups using non-directional independent groups t-tests. An alpha level of 0.05 was considered to be statistically significant. As an indicator of the responsiveness of the SF-36 scales to changes in health-related quality of life in severe heart failure patients, effect size estimates were also calculated. Effect size estimates were calculated as [mean (spironolactone)−mean (placebo)]/(SD placebo at baseline). (Hays R D, Anderson R, Revicki D. Psychometric considerations in evaluating health-related quality of life. Quality of Life Research 1993;2:441-449; Samsa G, Edelman D, Rothman M L, et al. Determining clinically important differences in health status measures. A general approach with illustrations to the Health Utilities Index Mark II. PharmacoEconomics1999;15:141-155). All analyses were carried out using SAS System for Windows, Release 6.12. (SAS version 6.12, SAS Institute Inc., North Carolina, 1996).
Patient Characteristics: Baseline HRQOL was assessed in a subsample of 90 subjects in 2 participating countries (i.e., Brazil and Canada). Forty-six subjects were randomized to spironolactone; 44 were randomized to the placebo arm. Sixty subjects had complete data for the 6 months of follow-up.

women with PMS = settings: cited from earlier work
[3] = ambulatory blood pressure monitoring
[4] = 3 months, listed as spironolactone
[5] = 6 months, listed as spironolactone
[6] = added to conventional heart failure therapy, severe HF
[7] = 100 mg daily from day 14 of menstrual cycle, compared to placebo, p<0.001

SMILES: CC(=O)SC1CC2=CC(=O)CCC2(C)C2CCC3(C)C(CCC34CCC(=O)O4)C12 (stereo not shown) [Spironolactone, 17-hydroxy-7″-mercapto-3-oxo-17″-pregn-4-ene-21-carboxylic acid γ-lactone acetate]
- adjusted mean change in ABPM DBP from baseline to final visit [1, 3]: −8.7 mmHg
- adjusted mean change in ABPM SBP from baseline to final visit [1, 3]: −15.8 mmHg
- adjusted mean change in Cuff DBP from baseline to final visit ([1]; eight-week study): −9.5 mmHg
- adjusted mean change in Cuff SBP from baseline to final visit ([1]; eight-week study): −16.7 mmHg
- myocardial fibrosis (animal models): prevents
- enhanced reactivity to novelty (rats): ameliorated
- Change from baseline in SF-36 Bodily Pain ([2]; 3 months): 19.6 ± 30.0^a
- Change from baseline in SF-36 General Health ([2]; 3 months): 9.7 ± 20.4^a
- Change from baseline in SF-36 Mental Composite Summary (MCS) ([2]; 3 months): 13.2 ± 11.8^a,b
- Change from baseline in SF-36 Mental Health ([2]; 3 months): 19.9 ± 21.2^a,b
- Change from baseline in SF-36 Physical Composite Summary (PCS) ([2]; 3 months): 3.0 ± 8.1^a
- Change from baseline in SF-36 Physical Functioning ([2]; 3 months): 7.9 ± 19.4^a
- Change from baseline in SF-36 Role Limitations - Emotional ([2]; 3 months): 37.8 ± 46.1^a
- Change from baseline in SF-36 Role Limitations - Physical ([2]; 3 months): 23.3 ± 40.1^a
- Change from baseline in SF-36 Social Functioning ([2]; 3 months): 24.6 ± 33.6^a
- Change from baseline in SF-36 Vitality ([2]; 3 months): 16.7 ± 24.1^a
- Change from baseline in SF-36 Mental Composite Summary (MCS) [2, 4]: 13.2±11.8
- Change from baseline in SF-36 Mental Health [2, 4]: 19.9±21.2
- Effect size estimate for change in SF-36 Bodily Pain ([2]; 3 months): 0.40
- Effect size estimate for change in SF-36 General Health ([2]; 3 months): 0.03
- Effect size estimate for change in SF-36 Mental Composite Summary (MCS) ([2]; 3 months): 0.86
- Effect size estimate for change in SF-36 Mental Health ([2]; 3 months): 0.76
- Effect size estimate for change in SF-36 Physical Composite Summary (PCS) ([2]; 3 months): −0.21
- Effect size estimate for change in SF-36 Physical Functioning ([2]; 3 months): −0.23
- Effect size estimate for change in SF-36 Role Limitations - Emotional ([2]; 3 months): 0.48
- Effect size estimate for change in SF-36 Role Limitations - Physical ([2]; 3 months): 0.33
- Effect size estimate for change in SF-36 Social Functioning ([2]; 3 months): 0.26
- Effect size estimate for change in SF-36 Vitality ([2]; 3 months): −0.07
- Change from baseline in SF-36 Bodily Pain ([2]; 6 months): 15.9 ± 30.5^a
- Change from baseline in SF-36 General Health ([2]; 6 months): 12.0 ± 22.3^a
- Change from baseline in SF-36 Mental Composite Summary (MCS) ([2]; 6 months): 10.3 ± 12.8^a
- Change from baseline in SF-36 Mental Health ([2]; 6 months): 17.5 ± 22.9^a,b
- Change from baseline in SF-36 Physical Composite Summary (PCS) ([2]; 6 months): 3.9 ± 9.1^a
- Change from baseline in SF-36 Physical Functioning ([2]; 6 months): 11.4 ± 21.5^a
- Change from baseline in SF-36 Role Limitations - Emotional ([2]; 6 months): 24.0 ± 39.9^a
- Change from baseline in SF-36 Role Limitations - Physical ([2]; 6 months): 14.8 ± 32.3^a
- Change from baseline in SF-36 Social Functioning ([2]; 6 months): 23.1 ± 32.1^a
- Change from baseline in SF-36 Vitality ([2]; 6 months): 19.0 ± 25.5^a
- Change from baseline in SF-36 Mental Composite Summary (MCS) [2, 5]: 10.3±12.8
- Change from baseline in SF-36 Mental Health [2, 5]: 17.5±22.9
- Effect size estimate for change in SF-36 Bodily Pain ([2]; 6 months): 0.28
- Effect size estimate for change in SF-36 General Health ([2]; 6 months): 0.08
- Effect size estimate for change in SF-36 Mental Composite Summary (MCS) ([2]; 6 months): 0.64
- Effect size estimate for change in SF-36 Mental Health ([2]; 6 months): 0.59
- Effect size estimate for change in SF-36 Physical Composite Summary (PCS) ([2]; 6 months): −0.07
- Effect size estimate for change in SF-36 Physical Functioning ([2]; 6 months): −0.11
- Effect size estimate for change in SF-36 Role Limitations - Emotional ([2]; 6 months): −0.42
- Effect size estimate for change in SF-36 Role Limitations - Physical ([2]; 6 months): −0.18
- Effect size estimate for change in SF-36 Social Functioning ([2]; 6 months): 0.20
- Effect size estimate for change in SF-36 Vitality ([2]; 6 months): 0.13
- effect on physical health or functioning [2, 6]: no detrimental effect
- impact on mental health status [2, 6]: strong, positive impact
- negative mood symptom scores (women with PMS; [7]): significant decrease
- somatic symptom scores (women with PMS; [7]): significant decrease
- irritability, depression, feeling of swelling, breast tenderness and food craving (women with PMS; in comparison to placebo): significantly improved
